Here are results for 22 compounds from US9090576B2, “2-substituted-p-quinone derivatives for treatment of oxidative stress diseases” (Edison Pharmaceuticals, Inc., priority 2008, dated 2015).

What all share (format): cell-based
In test [1] the test system is human dermal fibroblasts from LHON patients. Put plainly: Rescue of BSO-stressed fibroblasts from LHON patients (screen as Example A). The conditions noted are these: Fibroblast, read-out: EC50, protection against LHON. As to the method:
(§1) A culture with FRDA fibroblasts was started from a 1 ml vial with approximately 500,000 cells stored in liquid nitrogen. Cells were propagated in 10 cm cell culture dishes by splitting every third day in a ratio of 1:3 until nine plates were available. Once confluent, fibroblasts were harvested. For 54 micro titer plates (96 well-MTP) a total of 14.3 million cells (passage eight) were re-suspended in 480 ml medium, corresponding to 100 μl medium with 3,000 cells/well. The remaining cells were distributed in 10 cm cell culture plates (500,000 cells/plate) for propagation. The plates were incubated overnight at 37° C. in an atmosphere with 95% humidity and 5% CO2 to allow attachment of the cells to the culture plate.
(§2) MTP medium (243 μl) was added to a well of the microtiter plate. The test compounds were unfrozen, and 7.5 μl of a 5 mM stock solution was dissolved in the well containing 243 μl medium, resulting in a 150 μM master solution. Serial dilutions from the master solution were made. The period between the single dilution steps was kept as short as possible (generally less than 1 second).
(§3) Plates were kept overnight in the cell culture incubator. The next day, 10 μl of a 10 mM BSO solution were added to the wells, resulting in a 1 mM final BSO concentration. Forty-eight hours later, three plates were examined under a phase-contrast microscope to verify that the cells in the 0% control (wells E1-H1) were clearly dead. The medium from all plates was discarded, and the remaining liquid was removed by gently tapping the plate inversed onto a paper towel.
(§4) 100 μl of PBS containing 1.2 μM Calcein AM were then added to each well. The plates were incubated for 50-70 minutes at room temperature. After that time the PBS was discarded, the plate gently tapped on a paper towel and fluorescence (excitation/emission wavelengths of 485 nm and 525 nm, respectively) was read on a Gemini fluorescence reader. Data was imported into Microsoft Excel (EXCEL is a registered trademark of Microsoft Corporation for a spreadsheet program) and used to calculate the EC50 concentration for each compound.
Compounds of the invention were screened as described in Example A, but substituting FRDA cells with Leber's Hereditary Optic Neuropathy (LHON) cells obtained from the Coriell Cell Repositories (Camden, N.J.; repository number GM03858). The compounds were tested for their ability to rescue human dermal fibroblasts from LHON patients from oxidative stress.

Test [2] deals with Human dermal fibroblasts from Friedreich's Ataxia patients. Put plainly: Rescue of BSO-stressed FRDA fibroblasts (Calcein AM viability). The conditions noted are these: BSO-stressed FRDA fibroblasts (GM04078). As for the experimental part: An initial screen was performed to identify compounds effective for the amelioration of redox disorders. Test samples, 4 reference compounds (Idebenone, decylubiquinone, Trolox and α-tocopherol acetate), and solvent controls were tested for their ability to rescue FRDA fibroblasts stressed by addition of L-buthionine-(S,R)-sulfoximine (BSO), as described in Jauslin et al., Hum. Mol. Genet. 11(24):3055 (2002), Jauslin et al., FASEB J. 17:1972-4 (2003), and International Patent Application WO 2004/003565. […] This specific BSO-mediated cell death can be prevented by administration of antioxidants or molecules involved in the antioxidant pathway, such as α-tocopherol, selenium, or small molecule glutathione peroxidase mimetics. However, antioxidants differ in their potency, i.e. the concentration at which they are able to rescue BSO-stressed FRDA fibroblasts.
MEM (a medium enriched in amino acids and vitamins, catalog no. 1-31F24-I) and Medium 199 (M199, catalog no. 1-21F22-I) with Earle's Balanced Salts, without phenol red, were purchased from Bioconcept. Fetal Calf Serum was obtained from PAA Laboratories. Basic fibroblast growth factor and epidermal growth factor were purchased from PeproTech. Penicillin-streptomycin-glutamine mix, L-buthionine (S,R)-sulfoximine, (+)-α-tocopherol acetate, decylubiquinone, and insulin from bovine pancreas were purchased from Sigma. Trolox (6-hydroxy-2,5,7,8-tetramethylchromane-2-carboxylic acid) was obtained from Fluka. Idebenone was obtained from Chemo Iberica. Calcein AM was purchased from Molecular Probes. Cell culture medium was made by combining 125 ml M199 EBS, 50 ml Fetal Calf Serum, 100 U/ml penicillin, 100 μg/ml streptomycin, 2 mM glutamine, 10 μg/ml insulin, 10 ng/ml EGF, and 10 ng/ml bFGF; MEM EBS was added to make the volume up to 500 ml. A 10 mM BSO solution was prepared by dissolving 444 mg BSO in 200 ml of medium with subsequent filter-sterilization. During the course of the experiments, this solution was stored at +4° C. The cells were obtained from the Coriell Cell Repositories (Camden, N.J.; repository number GM04078) and grown in 10 cm tissue culture plates. Every third day, they were split at a 1:3 ratio.
The test samples were supplied in 1.5 ml glass vials. The compounds were diluted with DMSO, ethanol or PBS to result in a 5 mM stock solution. Once dissolved, they were stored at −20° C. Reference antioxidants (Idebenone, decylubiquinone, α-tocopherol acetate and trolox) were dissolved in DMSO.
Test samples were screened according to the following protocol:
as §1, §2
Plates were kept overnight in the cell culture incubator. The next day, 10 μl of a 10 mM BSO solution were added to the wells, resulting in a 1 mM final BSO concentration. Forty-eight hours later, three plates were examined under a phase-contrast microscope to verify that the cells in the 0% control (wells E1-H1) were clearly dead. […]

Test [3] has as its system human dermal fibroblasts from Huntington's patients. Put plainly: Rescue of BSO-stressed fibroblasts from Huntington's patients (screen as Example A). The conditions noted are these: Fibroblast, read-out: EC50, protection against Huntington's. As to the method: as §1, §2, §3, §4
Compounds of the invention were tested using the screen as described in Example A, but substituting FRDA cells with Huntington's cells obtained from the Coriell Cell Repositories (Camden, N.J.; repository number GM 04281). The compounds were tested for their ability to rescue human dermal fibroblasts from Huntington's patients from oxidative stress.

The mark [4] stands for this setting: BSO-stressed LHON fibroblasts (GM03858), less than about 150 nM.
Where [5] appears, read: less than about 150 nM, read-out: EC50, protection against FRDA.
Setting [6] is: BSO-stressed Huntington's fibroblasts (GM 04281), less than about 150 nM.
Setting [7] is: 1 mM BSO, 48 h, first of three experiments, read-out: EC50 Value 1.
Setting [8] is: 1 mM BSO, 48 h, second of three experiments, read-out: EC50 Value 2.
[9] abbreviates: 1 mM BSO, 48 h, third of three experiments, read-out: EC50 Value 3.
The mark [10] stands for this setting: average of three experiments, read-out: EC50 Average.

Molecules are shown by their SMILES. Like-named read-outs stand apart in the source and are kept apart here.

Regarding `CCNC(=O)NCCC1=C(C)C(=O)C(C)=C(c2ccc(Cl)cc2)C1=O` [1-(2-(5-(4-chlorophenyl)-2,4-dimethyl-3,6-dioxocyclohexa-1,4-dienyl)ethyl)-3-ethylurea], the EC50 in test [1] (setting [4]) and in test [2] (setting [5]) was below 150 nM each time. In the case of `CC1=C(C)C(=O)C(CCCC(=O)N2CCCC2)=C(C)C1=O` [2,3,5-trimethyl-6-(4-oxo-4-(pyrrolidin-1-yl)butyl)cyclohexa-2,5-diene-1,4-dione], in test [2] (setting [5]), the EC50 was below 150 nM. As for `CC1=C(C)C(=O)C(CCCC(=O)N2CCC(F)(F)CC2)=C(C)C1=O` [2-(4-(4,4-difluoropiperidin-1-yl)-4-oxobutyl)-3,5,6-trimethylcyclohexa-2,5-diene-1,4-dione], the EC50 in test [1] (setting [4]) is below 150 nM. Still for that read-out and setting: in the case of `CC1=C(C)C(=O)C(CCCC(=O)N2CCN(C(=O)C3CCCCC3)CC2)=C(C)C1=O` [2-(4-(4-(cyclohexanecarbonyl)piperazin-1-yl)-4-oxobutyl)-3,5,6-trimethylcyclohexa-2,5-diene-1,4-dione] it was below 150 nM; in that of `CC1=C(C)C(=O)C(CCCC(=O)N2CCN(C(=O)c3ccccc3)CC2)=C(C)C1=O` [2-(4-(4-benzoylpiperazin-1-yl)-4-oxobutyl)-3,5,6-trimethylcyclohexa-2,5-diene-1,4-dione], below 150 nM. Turning to `CC1=C(C)C(=O)C(CCC(C)C(=O)N2CCC(F)CC2)=C(C)C1=O` (stereo not shown) [2-(4-(4-fluoropiperidin-1-yl)-3-methyl-4-oxobutyl)-3,5,6-trimethylcyclohexa-2,5-diene-1,4-dione], the concentration for a half-maximal effect (EC50) in test [1] (setting [4]) and in test [3] (setting [6]) was below 150 nM throughout.

On to `CC1=C(C)C(=O)C(CCCC(=O)N2CCC(F)CC2)=C(C)C1=O` [2-(4-(4-fluoropiperidin-1-yl)-4-oxobutyl)-3,5,6-trimethylcyclohexa-2,5-diene-1,4-dione], for which the EC50 in test [1] (setting [4]) was below 150 nM.

On to `CC1=C(C)C(=O)C(CCC(C)C(=O)N2CCC(O)CC2)=C(C)C1=O` (stereo not shown) [2-(4-(4-hydroxypiperidin-1-yl)-3-methyl-4-oxobutyl)-3,5,6-trimethylcyclohexa-2,5-diene-1,4-dione], for which the EC50 in test [2] (setting [5]) is below 150 nM. On to `CC1=C(C)C(=O)C(CCNC(=O)C(O)c2ccc(Cl)cc2)=C(C)C1=O` (stereo not shown) [2-(4-chlorophenyl)-2-hydroxy-N-(2-(2,4,5-trimethyl-3,6-dioxocyclohexa-1,4-dienyl)ethyl)acetamide], for which the EC50 in test [1] (setting [4]) and in test [3] (setting [6]) was below 150 nM in each case.

On to `CC1=C(C)C(=O)C(CCNC(=O)C(O)c2ccccc2)=C(C)C1=O` (stereo not shown) [2-hydroxy-2-phenyl-N-(2-(2,4,5-trimethyl-3,6-dioxocyclohexa-1,4-dienyl)ethyl)acetamide], for which the EC50 in test [1] (setting [4]) and in test [2] (setting [5]) was below 150 nM in each case. Turning to `CC1=C(C)C(=O)C(CCC(C)C(N)=O)=C(C)C1=O` (stereo not shown) [2-methyl-4-(2,4,5-trimethyl-3,6-dioxocyclohexa-1,4-dienyl)butanamide], the concentration for a half-maximal effect (EC50) in test [1] (setting [4]) was below 150 nM. As for `CCCNC(=O)C(C)CCC1=C(C)C(=O)C(C)=C(C)C1=O` (stereo not shown) [2-methyl-N-propyl-4-(2,4,5-trimethyl-3,6-dioxocyclohexa-1,4-dienyl)butanamide], the EC50 in test [3] (setting [6]) was below 150 nM. Turning to `CCNC(=O)N(C)CCC1=C(C)C(=O)C(C)=C(C)C1=O` [3-Ethyl-1-methyl-1-(2-(2,4,5-trimethyl-3,6-dioxocyclohexa-1,4-dienyl)ethyl)urea], the EC50 in test [2] (setting [5]) is below 150 nM. Take `CC1=C(C)C(=O)C(CCNC(=O)N2CCC(=O)CC2)=C(C)C1=O` [4-Oxo-N-(2-(2,4,5-trimethyl-3,6-dioxocyclohexa-1,4-dienyl)ethyl)piperidine-1-carboxamide]: the EC50 in test [1] and in test [3] was below 150 nM each time. With `CC1=C(C)C(=O)C(CCNC(=O)N2CCC(O)CC2)=C(C)C1=O` [4-hydroxy-N-(2-(2,4,5-trimethyl-3,6-dioxocyclohexa-1,4-dienyl)ethyl)piperidine-1-carboxamide], the EC50 in test [1] (setting [4]) is below 150 nM. As for `CCCCCCCCCCC1=C(C)C(=O)C(OC)=C(OC)C1=O` [Decylubiquinone, decylubiquinone, reference compound], the EC50 in test [2] (setting [7]) is 50 nM; in test [2] (setting [8]), 35 nM; in test [2] (setting [9]) it was 30 nM; in test [2] (setting [10]), 38 nM. On the same counts, the results for `COC1=C(OC)C(=O)C(CCCCCCCCCCO)=C(C)C1=O` [Idebenone, reference compound] are 1500 nM, 1000 nM, 1000 nM and 1200 nM. For the compound `CC1=C(C)C(=O)C(CCNC(=O)c2cccnc2)=C(C)C1=O` [N-(2-(2,4,5-trimethyl-3,6-dioxocyclohexa-1,4-dienyl)ethyl)nicotinamide], the EC50 in test [1] (setting [4]) was below 150 nM. Take `CC1=C(C)C(=O)C(CCNC(=O)N2CCCCC2)=C(C)C1=O` [N-(2-(2,4,5-trimethyl-3,6-dioxocyclohexa-1,4-dienyl)ethyl)piperidine-1-carboxamide]: in test [2] (setting [5]), the half-maximal effective concentration (EC50) was below 150 nM. In the case of `CC1=C(CCNC(=O)C2CCC(F)(F)CC2)C(=O)C(c2ccc(Cl)cc2)=C(C)C1=O` [N-(2-(5-(4-chlorophenyl)-2,4-dimethyl-3,6-dioxocyclohexa-1,4-dienyl)ethyl)-4,4-difluorocyclohexanecarboxamide], the EC50 in test [1] (setting [4]) and in test [2] (setting [5]) was below 150 nM in each case. Consider `Cc1c(C)c2c(c(C)c1O)CCC(C)(C(=O)O)O2` (stereo not shown) [Trolox, 6-hydroxy-2,5,7,8-tetramethylchromane-2-carboxylic acid, reference compound], for which the EC50 in test [2] (setting [7]) is 9000 nM; in test [2] (setting [8]) it was 9000 nM; in test [2] (setting [9]), 8000 nM; in test [2] (setting [10]), 8700 nM. On to `CC(=O)Oc1c(C)c(C)c2c(c1C)CCC(C)(CCC[C@H](C)CCC[C@H](C)CCCC(C)C)O2` (stereo partly drawn) [alpha-Tocopherol acetate, (+)-α-tocopherol acetate, reference compound], for which the EC50 in test [2] (setting [7]) is 400 nM; in test [2] (setting [8]), 150 nM; in test [2] (setting [9]) it was 350 nM; in test [2] (setting [10]) it was 300 nM.

By EC50 is commonly meant the midpoint of the concentration-response curve.
